Results as given in ChEMBL document CHEMBL1126761, “A novel constrained reduced-amide inhibitor of HIV-1 protease derived from the sequential incorporation of gamma-turn mimetics into a model substrate” (J Med Chem, 1993).
*1 amine or outer side, *2 acyl side, *3 side chain or, on linkers, in order; H or OH if unused. Where a SMILES comes first, the peptide text is derived from it. [ ]: non-standard residue; d: D form. X1 = CC(N[*:1])C1=CCC(=O)N([C@@H](Cc2ccccc2)C(=O)[*:2])CC1; X2 = O=C([C@@H]1CCCN1C[C@H](Cc1ccccc1)N[*:1])[*:2]

Biological target: Human immunodeficiency virus type 1 protease (Human immunodeficiency virus 1, UniProt Q72874)
Assay: Inhibition constant was determined against HIV-1 protease

Compound | Ki
CC(C)[C@H](NC(=O)[C@@H](NC(=O)[C@@H]1CCCN1C[C@H](Cc1ccccc1)NC(=O)[C@H](C)NC(=O)[C@H](C)NC(=O)[C@@H](N)CO)C(C)C)C(N)=O (H-SAA[X2]VV-NH2) | 18.8 µM
COC(=O)[C@@H](NC(=O)[C@H](C(C)C)N1CCC(C(Cc2ccccc2)NC(=O)[C@H](C)NC(=O)[C@H](C)NC(=O)[C@@H](N)CO)=CCC1=O)C(C)C (stereo in doubt; form 1) | > 2000 µM
CC(NC(=O)[C@@H](N)CO)C1=CCC(=O)N([C@@H](Cc2ccccc2)C(=O)N2CCC[C@H]2C(=O)N[C@H](C(=O)N[C@H](C(N)=O)C(C)C)C(C)C)CC1 (some centres not stated) (H-S[X1]PVV-NH2) | > 2000 µM
COC(=O)[C@@H](NC(=O)[C@@H](NC(=O)[C@H](C)N1CCC([C@H](C)NC(=O)[C@H](C)N)=CC(Cc2ccccc2)C1=O)C(C)C)C(C)C (stereo in doubt; form 1) | 372 µM
COC(=O)[C@@H](NC(=O)[C@@H](NC(=O)[C@H](C)N1CCC([C@H](C)NC(=O)[C@H](C)N)=CC(Cc2ccccc2)C1=O)C(C)C)C(C)C (stereo in doubt; form 2) | 147 µM
COC(=O)[C@@H](NC(=O)[C@@H](NC(=O)[C@H](C)N1CCC([C@H](C)NC(=O)[C@H](C)N)=CC(Cc2ccccc2)C1)C(C)C)C(C)C (stereo in doubt; form 1) | 0.43 µM
COC(=O)[C@@H](NC(=O)[C@H](C(C)C)N1CCC(C(Cc2ccccc2)NC(=O)[C@H](C)NC(=O)[C@H](C)NC(=O)[C@@H](N)CO)=CCC1=O)C(C)C (stereo in doubt; form 2) | 1700 µM
